Source: patent US6878269B2, “Device for body fluid purification and system for body fluid purification” (Kaneka Corporation, priority 1996, dated 2005)

How the values were obtained:
[1] = system: β2-microglobulin or chemokines; experiment: Adsorbing ability of immobilized compounds of various log P values; type: binding; conditions: compound immobilized on carrier
Source text: In discovering compounds effective for adsorbing substances related to malady in body fluid, in particular, for adsorbing β2-microglobulin or chemokines, compounds having various log P values have been examined in a state of being immobilized.

[2] = octanol-water system, found value; cited from earlier work

CCCCCCCCCCCCCCCCN [hexadecylamine]
adsorbing ability for β2-microglobulin or chemokines [1]: further enhanced

CCCCN [n-butylamine]
log P [2]: 0.97

CCCCCCCCN [n-octylamine]
adsorbing ability for β2-microglobulin or chemokines [1]: enhanced to a great extent

CCCCCCCCCCCCCCCCCCN [octadecylamine]
adsorbing ability for β2-microglobulin or chemokines (guessed) ([1]; guessed and not tested): equivalent to or better than that of hexadecylamine
